From US20200278355A1, “CONJUGATED PROTEINS AND USES THEREOF” (THE SCRIPPS RESEARCH INSTITUTE, priority 2017, published 2020)

Assays:
NUDT8 = molecular target: T1, NUDT8 (Homo sapiens, UniProt Q8WV74); assay: isoTOP-ABPP of compound-treated H460 cells: NUDT8; assay type: cell-based; settings: NUDT8 C207; 40 μM
T1 construct: H460 cells or H460 cells expressing luciferase in a 10 cm plate were incubated with indicated compounds; endogenous in cells; host or cells: H460
Procedure: For analysis of NR0B1 ligands or control compound reactivity, H460 cells or H460 cells expressing luciferase in a 10 cm plate were incubated with indicated compounds in serum/dye-free RPMI for 3 hours at 37° C. Cells were washed once ice-cold PBS and lysed in 1% Triton X-100 dissolved in PBS with protease inhibitors (Sigma) by sonication. Samples were clarified by centrifugation for 10 min at 16,000×g. Lysate was adjusted to 1.5 mg ml^−1 in 500 μL.
Samples were labeled for 1 h at ambient temperature with 100 μM iodoacetamide alkyne (1, IA-alkyne, 5 μL of 10 mM stock in DMSO). Samples were conjugated by copper-catalyzed azide-alkyne cycloaddition (CuAAC) to isotopically labeled, TEV-cleavable tags (TEV-tags). Heavy CuAAC reaction mixtures was added to the DMSO-treated or shGFP control samples and light CuAAC reaction mixture was added to compound-treated or shNRF2 samples. The CuAAC reaction mixture consisted of TEV tags (light or heavy, 10 μL of 5 mM stocks in DMSO, final concentration=100 μM), 1 mM tris(2-carboxyethyl)phosphine hydrochloride (TCEP; fresh 50× stock in water, final concentration=1 mM), ligand (17× stock in DMSO:t-butanol 1:4, final concentration=100 μM) and 1 mM CuSO4 (50× stock in water, final concentration=1 mM). The samples were allowed to react for 1 h at which point the samples were centrifuged (16,000×g, 5 min, 4° C.). […]

FLAG-NR0B1 (WT) = molecular target: T2, FLAG-NR0B1 (WT) (Homo sapiens, UniProt P51843); assay: Gel-based BPK-29yne labeling of NR0B1 and competition in HEK293T cells; assay type: cell-based; settings: 3 h pre-treatment, then BPK-29yne 30 min
T2 construct: expressed in transfected cells; host or cells: HEK-293T, transient, pRK5-based vector
Procedure: 4×10^6 HEK-293T cells were seeded in poly-L-lysine coated 10 cm plates and transfected the next day with 5 μg of FLAG-NR0B1, FLAG-NR0B1-C274V, or FLAG-METAP2 cDNA in a pRK5-based expression vector. 48 h after transfection, cells were treated with indicated concentrations of BPK-29 or control compound BPK-27 for 3 h at 37° C. in DMEM containing 10% FBS and supplements as described in Cell Culture. BPK-29yne (5 μM) was then added and incubated for an additional 30 min at 37° C. FLAG immunoprecipitates were prepared as described above and following washes, the FLAG resin was resuspended in PBS (100 μL). To each sample, 12 μL of a freshly prepared “click” reagent mixture was added to conjugate the fluorophore to probe-labeled proteins. […] Samples were boiled for 5 min and proteins were resolved by SDS-PAGE (10% acrylamide), and visualized by in-gel fluorescence on a Bio-Rad ChemiDoc MP flatbed fluorescence scanner. Samples were also analyzed by immunoblotting. Recombinantly expressed FLAG-tagged protein levels were determined with the FLAG antibody (Sigma). Gel fluorescence and imaging was processed using Image Lab (v 5.2.1) software.

T2 sequence (P51843 whole entry): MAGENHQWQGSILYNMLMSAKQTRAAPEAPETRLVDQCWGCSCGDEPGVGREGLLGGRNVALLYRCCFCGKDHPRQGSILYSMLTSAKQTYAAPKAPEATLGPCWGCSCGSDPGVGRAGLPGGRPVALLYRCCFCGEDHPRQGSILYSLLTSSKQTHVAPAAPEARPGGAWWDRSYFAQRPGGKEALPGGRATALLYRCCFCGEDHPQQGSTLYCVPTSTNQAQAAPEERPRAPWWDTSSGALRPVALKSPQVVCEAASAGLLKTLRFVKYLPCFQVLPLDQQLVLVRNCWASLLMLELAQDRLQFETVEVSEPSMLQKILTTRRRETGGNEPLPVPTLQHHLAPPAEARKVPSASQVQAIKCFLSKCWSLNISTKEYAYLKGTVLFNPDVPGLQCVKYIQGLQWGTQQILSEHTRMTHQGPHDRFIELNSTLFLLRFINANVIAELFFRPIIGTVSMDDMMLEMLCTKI
T1 sequence (Q8WV74 whole entry): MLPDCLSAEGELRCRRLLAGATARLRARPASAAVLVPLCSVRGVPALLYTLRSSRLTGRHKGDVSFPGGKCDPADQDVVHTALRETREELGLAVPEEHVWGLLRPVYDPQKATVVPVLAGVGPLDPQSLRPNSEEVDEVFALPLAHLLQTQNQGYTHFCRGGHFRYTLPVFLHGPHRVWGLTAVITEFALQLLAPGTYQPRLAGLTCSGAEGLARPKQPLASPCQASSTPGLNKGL

## O=C(c1ccc(N2CCOCC2)cc1)N1CCCC(N(Cc2ccccc2)C(=O)CCl)CC1 (centres unmarked) [BPK-29, N-benzyl-2-chloro-N-(1-(4-morpholinobenzoyl)azepan-4-yl)acetamide]
NUDT8
  BPK-29-competed isoTOP-ABPP analysis: Yes (Competed defined as showing R value ≥ 3.0 at 40 μM of test compound)
FLAG-NR0B1 (WT)
  blockade of BPK-29yne labeling of NR0B1 by pre-treatment: blocked by pre-treatment with BPK-29 in a concentration dependent manner
